Data from patent EP1094724B1, “USE OF A PHENOL OXIDISING ENZYME IN THE TREATMENT OF TOBACCO” (priority 1998, dated 2000).

Assays:
[1] = molecular target: T1, laccase derived from Trametes villosa, TvL (Trametes villosa, UniProt Q99044); test: Effect of laccase on tobacco constituents, UV/Vis spectra before and after treatment (Example 1); format: biochemical; settings: 9 mM Na-acetate buffer pH 5.0; 4.8% Ethanol; 0.025 mg/ml of tobacco constituent; 0.016 mg/ml laccase; spectra 190-700 nm every 20 seconds for 5 minutes
T1 construct: purchased Novo Nordisk A/S
T1 sequence (Q99044 22-520): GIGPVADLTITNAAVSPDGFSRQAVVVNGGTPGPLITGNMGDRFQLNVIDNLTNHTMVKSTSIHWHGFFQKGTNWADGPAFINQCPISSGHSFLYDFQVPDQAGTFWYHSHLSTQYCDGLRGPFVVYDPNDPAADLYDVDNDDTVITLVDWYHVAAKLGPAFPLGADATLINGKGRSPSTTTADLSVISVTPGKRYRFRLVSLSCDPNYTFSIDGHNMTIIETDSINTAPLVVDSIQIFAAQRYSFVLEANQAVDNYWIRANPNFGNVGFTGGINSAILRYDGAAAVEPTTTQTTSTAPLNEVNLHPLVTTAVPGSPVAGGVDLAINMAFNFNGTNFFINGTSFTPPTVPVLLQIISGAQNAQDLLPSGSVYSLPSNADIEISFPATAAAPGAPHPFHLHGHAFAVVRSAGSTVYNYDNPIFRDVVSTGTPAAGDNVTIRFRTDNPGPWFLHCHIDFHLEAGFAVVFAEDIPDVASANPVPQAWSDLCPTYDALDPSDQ
Protocol: Tobacco constituents: Nicotine, Chlorogenic acid, Rutin and Scopoletin. Enzyme: Purified laccase derived from Trametes villosa, TvL. Apparatus: HP8452 UV/Vis diode array spectrophotometer, 1 cm quarts cuvette. Buffer: Sodium acetate (Merck)
10 mM acetate buffer was prepared from sodium acetate adjusted to pH 5.0 with sulphuric acid. Stock solution of 0.50 mg/ml in 96% ethanol was prepared of nicotine, chlorogenic acid, rutin, and scopoletin. A stock solution of 0.31 mg enzyme protein/ml of laccase in de-mineralised water was prepared. The HP diode array spectrophotometer was operated as per the manufacturer's instructions. A 1 cm quartz cuvette was used. As a blank was used 950µl buffer mixed with 50µl 96% ethanol. In a 1 cm quart cuvette was mixed 900µl 10 mM acetate buffer and 50µl of the stock solution of the compound in question. A spectrum of the "native" compound was recorded in the range 190-700 nm. 50µl of TvL stock solution was added and carefully mixed, and spectra in the range 190-700 nm were recorded every 20 seconds for 5 minutes.

[2] = molecular target: T2, Trametes villosa laccase (TvL) (Trametes villosa, UniProt Q99044); test: Laccase TvL treatment of tobacco extract, HPLC analysis of phenolic compounds (peak area); format: biochemical; settings: for % Remaining (peak area) after various treatment times: intensive, submerse aeration; for % Remaining (peak area) after 75 minutes / % Remaining (peak area) after 240 minutes: 1.6 µg/ml TvL, ambient temperature (approximately 20°C), surface aeration
T2 construct: purchased Novo Nordisk A/S
T2 sequence (Q99044 22-520): T1 sequence (Q99044 22-520)
Protocol: The content of phenolic compounds is analysed by HPLC according to the procedure described below: • Liquid chromatographic system: E.g. Shimadzu SCL-6B System Controller, and two LC-6A Liquid Chromatograph (pumps) or Waters model 600 E • Injector: Shimadzu SIL 6B Autoinjector or Waters 715 Ultra Wisp. UV detector: Shimadzu SPD-6A Photodiode Array UV-VIS detector or Waters Model 481 • Software: CLASS LC10 / CLASS-MXA or Maxima 820 • Column: Supelcosil™ LC-18 25 cm x 4.6 mm (Supelco, #5-8298) or µ Bondapack C198 stainless steel column, 30 cm x 4 mm i.d., 10 µm particle size. • Guard column: none or Guard-Pak from Waters packed with the same material. • Temperature: Ambient • Mobile phase flow: 1.3 ml/min • Injection volume: 20µl • Wavelength: 350 nm • Eluent: Binary gradient (linear) mixture of A: KH2PO4 (28.4 g in 2000 ml de-mineralised water) and B: methanol (please see table 1 and figure 1). The eluent is filtered through a 0.45 µm filter and degassed before use.
Prior to HPLC analysis, the samples were filtered through a 0.45 µm filter or smaller, e.g. a sterile Sartorius Minisart 0.45 µm filter (#16555) or a Millipore Millex-GS 0.22 µm (#SBGS 0 25 SB) to remove the haze/precipitate normally formed during enzyme treatment. Normally, no dilution of the extract/sample was made before HPLC analysis.
For qualitative and semi-quantitative measurements, each of the standards was dissolved in 96% ethanol, and then mixed in a ratio and at a concentration which was within the range in the tobacco extract. For semi-quantification of the phenolic compounds in the tobacco extract, and as a measure of development in concentration of the various compounds contained in the extract, decrease in peak area relative to the peak area before addition of enzyme was used. As a measure of overall efficiency of the process, degree of reduction in total peak area of all peaks (not only the major ones) in the HPLC chromatogram with retention time Rt>3 min was used (named: "All peaks").
Unless otherwise indicated, the tobacco was extracted at a laboratory scale with water according to the following procedure: 1000 ml demineralised water is heated to 45°C. 30 g tobacco (approx. 25 g d.m.) is added and the mixture stirred by a magnetic bar and occasionally with a stick. After 15 minutes the tobacco residue is separated from the tobacco extract by vacuum filtration (Whatman glass micro fibre GF/F 11 cm). The filtered extract is then vacuum filtered at least once more or until it is completely clear. Yield was around 900 ml tobacco extract. […] No buffer was thus included in any of the trials. D.m. content of the extract was approximately 2.1%.
Tobacco extract (typically 50-100 ml) was poured into a glass beaker and a magnetic bar was added. No pH adjustments were made, and no buffer was added. The tobacco extract was heated to and controlled at 55°C during the entire enzyme treatment by means of a heating plate and a thermostat. Intensive submerse aeration was applied by blowing atmospheric air into the extract by means of a metal sinter (metal suction filter normally used for HPLC). The enzyme in question (TvL or PpL) was added to the desired concentration. Shortly after addition of laccase, the colour of the tobacco extract turned dark brown to black, and with time the liquor became turbid and a precipitate formed. The liquor was sampled with intervals for HPLC analysis.
Enzyme treatment: Surface aeration was used. TvL enzyme was added to the tobacco extract to a concentration of approximately 1.6 µg/ml. […] HPLC chromatograms of the tobacco extract before, during, and after enzyme treatment as well as chromatograms of the mixture of HPLC standards are shown in figure 6, 7, ,8, and 9.
Enzyme treatment: pH of the extract was adjusted with H2SO4 or NaOH to pH 4, pH 5, pH 6, or pH 7. The extract was kept at ambient temperature (approximately 20°C) during the entire enzyme treatment. Surface aeration was used. […]

Row | Structure (SMILES) | spectral changes (peak position and peak relative height) [1] | % Remaining (peak area) after various treatment times ([2]; 40 Min, approximately 1.6 µg/ml TvL at 55°C and pH 5.4) [%] | % Remaining (peak area) after various treatment times ([2]; 40 Min, approximately 7.8µg/ml TvL at 55°C and pH 5.4) [%] | % Remaining (peak area) after various treatment times ([2]; 80 Min, approximately 1.6 µg/ml TvL at 55°C and pH 5.4) [%] | % Remaining (peak area) after various treatment times ([2]; 120 Min, approximately 1.6 µg/ml TvL at 55°C and pH 5.4) [%] | % Remaining (peak area) after 75 minutes ([2]; pH 4) [%] | % Remaining (peak area) after 240 minutes ([2]; pH 4) [%] | % Remaining (peak area) after 75 minutes ([2]; pH 5) [%] | % Remaining (peak area) after 240 minutes ([2]; pH 5) [%] | % Remaining (peak area) after 75 minutes ([2]; pH 6) [%] | % Remaining (peak area) after 240 minutes ([2]; pH 6) [%] | % Remaining (peak area) after 75 minutes ([2]; pH 7) [%] | % Remaining (peak area) after 240 minutes ([2]; pH 7) [%]
1 | CN1CCCC1c1cccnc1 (stereo not shown) [Nicotine] | No spectral changes | – | – | – | – | – | – | – | – | – | – | – | –
2 | C[C@@H]1O[C@@H](OC[C@H]2O[C@@H](Oc3c(-c4ccc(O)c(O)c4)oc4cc(O)cc(O)c4c3=O)[C@H](O)[C@@H](O)[C@@H]2O)[C@H](O)[C@H](O)[C@H]1O [R, rutin] | – | 20 | 0 | 0 | 0 | 44 | 0 | 29 | 0 | 14 | 0 | 87 | 63
